The source of these data is patent US20240374730A1, “PHOTOACTIVATABLE PRODRUG NANOPARTICLES FOR COMBINED ANTI-ANGIOGENESIS AND PHOTODYNAMIC THERAPY” (The University of Hong Kong, priority 2021, published 2024).

Assay [1] deals with VEGF-stimulated human umbilical vein endothelial cells (HUVECs). The assay can be described thus: MTT cell viability of VEGF-stimulated HUVECs (dasatinib vs Di-DAS). Type of assay: cell-based. As to conditions: HUVEC, 20 ng/mL VEGF165, 48 h, read-out: 50% inhibition concentration (IC50). The procedure:
. Cells were incubated with 20 ng/mL VEGF165 and co-treated with dasatinib or Di-DAS at various concentrations for 48 h. FIG. 4B VEGF-stimulated HUVEC tube formation assay of Di-DAS-VER. […] FIG. 4C Quantitative HUVEC cell viability of Di-DAS-VER by MTT assay. […] MTT assay was performed at 24 h after treatment. […] . DAS: dasatinib; VER: verteporfin.
We tested the in vitro anti-angiogenic activity of DAS and Di-DAS in VEGF-stimulated human umbilical vein endothelial cells (HUVECs). […] . To assess therapeutic efficacy of combined anti-VEGF and PDT treatment, thiazolyl blue tetrazolium bromide (MTT) assay was conducted for measuring VEGF-stimulated HUVEC cell viability.

Assay [2] relates to VEGF-stimulated HUVECs. The assay can be described thus: HUVEC scratch-wound healing assay. As to conditions: DAS group, irradiation not stated, 20 h.
The subject of assay [3] is VEGF-induced HUVEC tube formation. The assay can be described thus: VEGF-induced HUVEC tube formation assay. Type of assay: cell-based, human. As to conditions: DAS equivalent dose 0.05 μM, 20 ng/mL VEGF165, 4 h.

On to `Cc1nc(Nc2ncc(C(=O)Nc3c(C)cccc3Cl)s2)cc(N2CCN(CCO)CC2)n1` [DAS, dasatinib], for which, in assay [1], the IC50 worked out at 910 nM. Further, the scratch wound recovery in assay [2] worked out at 11.35%.

For verteporfin, the “inhibition of VEGF-induced HUVEC differentiation and formation of vessel-like tubes” value in assay [3] is “could not inhibit”.
